Results reported in patent US5792622A, “Assay for chemicals” (priority 1995, dated 1998).
pIC50: −log10 of the molar value. In brackets after ≈: the same amount, converted by molar mass. Where two headings read alike, the source gives them in different places.

How the values were obtained:
R. meliloti [1] = assay: microbe, parasite or virus in culture; format: cell-based
[2] = Procedure: Solid phenol was dissolved in water and added to the reaction tubes.
R. meliloti [3] = details: cited from earlier work
R. meliloti NSI = assay: Inhibition of growth of R. meliloti NSI; format: cell-based; details: read-out: concentration inhibiting growth 50%
Procedure: Typically, R. meliloti is grown in medium with 10-20 uM calcium. Magnesium sulfate, at 59.9 ppm, is 0.2435 mM. The medium MDM contains 0.6 mm Magnesium chloride; this is a concentration found in most defined media. […] CDM, the medium used in the experiments with the assay of the invention, is 0.81 mM with respect to magnesium.

E. coli = assay: Inhibition of tetrazolium dye reduction by E. coli; format: cell-based
Procedure: The other strains of bacteria, mixed in a buffer with various toxic chemicals, which were tested with the tetrazolium dye, gave varying results. Some bacteria reduced the dye, but the reduction was not inhibited appreciably by toxic chemicals. The absorbance of tetrazolium by Rhodobacter sphaeroides was not inhibited by copper. E. coli reduced the dye, but reduction was not inhibited by xylene. […] FIG. 1 is a graph showing data comparing the absorbance of the bacteria R. meliloti and E. coli at A590 varying between 0.0 and 0.3 in reacting with different toxins.

[4] = Table 9; cited from earlier work

ClC(Cl)(Cl)Cl [Carbon tetrachloride]
IC50 (R. meliloti [1]; Sinorhizobium meliloti, Table 4, organic compounds, read-out: average (ppm), concentration giving 50% inhibition of dye reduction): 3530 µg/mL (≈ 22.9 mM)
miscibility in water [2]: very immiscible in water

N#CC(C#N)=NNc1ccc(OC(F)(F)F)cc1 [FCCP, carbonyl-cyanide p(triflouromethoxy)phenylhydrozone]
IC50 (R. meliloti [1]): only a few μl
IC50 (R. meliloti [1]; Sinorhizobium meliloti, read-out: average (ppm), concentration giving 50% inhibition of dye reduction): 0.114 µg/mL (≈ 0.000449 mM)
inhibition of tetrazolium reduction compared with DNP (R. meliloti [3]): at a much lower concentration than does DNP

[Cl-].[Cl-].[Mg+2] [MgCl2, Magnesium chloride]
pIC50 (R. meliloti NSI): 1.57

Xylene
ppm (50% inhibition of reduction) (R. meliloti [1]; Table 5, 10,000 ppm stock method): 151 ppm
ppm (50% inhibition of reduction) (R. meliloti [1]; Table 5, QSAR method: aqueous phase assayed, hydrocarbon in water estimated by QSAR solubility model): 30.3 ppm
ppm (50% inhibition of reduction) (R. meliloti [1]; Table 5, direct method): 476 ppm
Rhizobium/Tetrazolium ppm (R. meliloti [1]; Table 9): 146-452 ppm
sensitivity of Rhizobium/Tetrazolium assay compared with Microtox assay (R. meliloti [1]; ratio of the inhibitory concentrations): at least an order of magnitude more sensitive than the Rhizobium/Tetrazolium assay
inhibition of dye reduction (E. coli): not inhibited
Microtox ppm [4]: .70-9.25 ppm
